ChEMBL document CHEMBL4831503, “Design, synthesis, in vitro and in vivo anti-respiratory syncytial virus (RSV) activity of novel oxizine fused benzimidazole derivatives” (Eur J Med Chem, 2021)
pEC50: −log10 of the molar value. Activity calls are given as the source filed them. No cut-off for these calls is given here.

Legend:
[1] = system: Respiratory syncytial virus; experiment: Inhibition of RSV induced apoptosis in human HEp-2 cells assessed as late apoptotic cells at 25 uM measured after 60 hrs by Annexin V-FITC/PI staining based flow cytometry analysis (reference value: 20.2%); type: functional; set-up: scale not given: the % may be the effect or the level left
[2] = system: Respiratory syncytial virus; experiment: Antiviral activity against RSV Long infected in BALB/c mouse assessed as improvement in inflammatory infiltration of lung tissue at 25 mg/kg/day observed on day 6 after infection by H and E staining based microscopic analysis; type: functional, organism-based; settings: time 6.0 day
[3] = system: Respiratory syncytial virus; experiment: Antiviral activity against Respiratory syncytial virus Long infected in human HEp-2 cells assessed as reduction in viral infection up to 50 uM treated 2 hpi measured after 60 hrs by MTT assay; type: functional, organism-based; settings: dose microM <=50, time 60.0 hrs
[4] = system: Respiratory syncytial virus; experiment: Inhibition of RSV induced apoptosis in human HEp-2 cells assessed as early apoptotic cells at 50 uM measured after 60 hrs by Annexin V-FITC/PI staining based flow cytometry analysis (reference value: 10.3%); type: functional; set-up: scale not given: the % may be the effect or the level left
[5] = system: Respiratory syncytial virus; experiment: Antiviral activity against RSV infected in human HEp-2 cells assessed as downregulation of NF-kappaB expression at 25 to 50 uM treated 48 hpi and measured after 48 hrs by Western blot analysis; type: functional, organism-based; settings: dose 25-50 µM
[6] = system: Respiratory syncytial virus; experiment: Antiviral activity against Respiratory syncytial virus infected in human HEp-2 cells assessed as reduction in viral infection incubated for 60 hrs by MTT assay; type: functional, organism-based; settings: dose 3.125-50 µM
[7] = system: Human orthopneumovirus; experiment: Antiviral activity against Respiratory syncytial virus A2 infected in human A549 cells assessed as reduction in viral infection incubated for 60 hrs by MTT assay; type: functional, organism-based; settings: A2, A549, 60 h
[8] = system: HEp-2; experiment: Inhibition of RSV induced autophagy flux in RSV-infected infected human HEP-2 cells by measuring p62 expression at 25 to 50 uM measured after 24 hrs by Western blot analysis; type: functional, cell-based; settings: Respiratory syncytial virus, dose 25-50 µM
[9] = system: Respiratory syncytial virus; experiment: Inhibition of RSV induced apoptosis in human HEp-2 cells assessed as late apoptotic cells at 50 uM measured after 60 hrs by Annexin V-FITC/PI staining based flow cytometry analysis (reference value: 20.2%); type: functional; set-up: scale not given: the % may be the effect or the level left
[10] = system: Respiratory syncytial virus; experiment: Antiviral activity against RSV infected in human HEp-2 cells assessed as decrease in virus induced IL-6 gene expression measured after 48 hrs by RT-PCR analysis; type: functional, organism-based
[11] = system: Respiratory syncytial virus; experiment: Antiviral activity against RSV infected in human HEp-2 cells assessed as decrease in virus induced TLR-3 gene expression measured after 48 hrs by RT-PCR analysis; type: functional, organism-based
[12] = system: Respiratory syncytial virus; experiment: Antiviral activity against RSV Long infected in BALB/c mouse assessed as reversal of virus infection induced weight loss at 25 to 100 mg/kg/day administered via gastric gavage once daily for 6 days; type: functional, organism-based; settings: dose 25-100 mg/kg/day, time 6.0 day
[13] = system: Respiratory syncytial virus; experiment: Inhibition of RSV induced apoptosis in human HEp-2 cells assessed as early apoptotic cells at 25 uM measured after 60 hrs by Annexin V-FITC/PI staining based flow cytometry analysis (reference value: 10.3%); type: functional; set-up: scale not given: the % may be the effect or the level left
[14] = system: Respiratory syncytial virus; experiment: Antiviral activity against Respiratory syncytial virus Long infected in African green monkey Vero cells assessed as reduction in viral infection incubated for 60 hrs by MTT assay; type: functional, organism-based; settings: human respiratory syncytial virus
[15] = system: Respiratory syncytial virus; experiment: Antiviral activity against RSV infected in BALB/c mouse assessed as downregulation of iNOS expression in lung tissue infected with RSV at 25 to 100 mg/kg/day measured after 2 to 6 days post infection by RT-PCR analysis; type: functional, organism-based; settings: dose 25-100 mg/kg/day, time 2-6 day
[16] = system: Respiratory syncytial virus; experiment: Antiviral activity against RSV infected in BALB/c mouse assessed as downregulation of TLR3 expression in lung tissue infected with RSV at 25 to 100 mg/kg/day measured after 2 to 6 days post infection by RT-PCR analysis; type: functional, organism-based; settings: dose 25-100 mg/kg/day, time 2-6 day
[17] = system: Respiratory syncytial virus; experiment: Antiviral activity against Respiratory syncytial virus infected in human HEp-2 cells assessed as reduction in RSV-F gene expression at 25 uM measured after 24 to 60 hpi by RT-PCR analysis; type: functional, organism-based; settings: time 24-60 hrs
[18] = Inhibition of RSV induced ROS production in human HEp-2 cells assessed as reduction in accumulation of ROS-positive cells at 50 uM measured after 36 hrs by DCHF-DA staining based flow cytometry analysis (reference value: 82.2%); type: functional, Respiratory syncytial virus; set-up: scale not given: the % may be the effect or the level left
[19] = system: Respiratory syncytial virus; experiment: Antiviral activity against Respiratory syncytial virus infected in human HEp-2 cells assessed as inhibition of viral replication at 25 uM treated up to 14 hpi and measured after 60 hrs by MTT assay; type: functional, organism-based
[20] = system: Respiratory syncytial virus; experiment: Antiviral activity against RSV infected in human HEp-2 cells assessed as decrease in virus induced TBK1 gene expression measured after 48 hrs by RT-PCR analysis; type: functional, organism-based
[21] = system: Respiratory syncytial virus; experiment: Antiviral activity against RSV infected in human HEp-2 cells assessed as decrease in virus induced NF-kappaB gene expression measured after 48 hrs by RT-PCR analysis; type: functional, organism-based
[22] = system: Respiratory syncytial virus; experiment: Antiviral activity against RSV infected in human HEp-2 cells assessed as downregulation of RIG-1 expression at 25 to 50 uM treated 48 hpi and measured after 48 hrs by Western blot analysis; type: functional, organism-based; settings: dose 25-50 µM
[23] = Cytotoxicity against human HEp-2 cells assessed as reduction in cell viability measured after 60 hrs by MTT assay; type: cell-based
[24] = system: Respiratory syncytial virus; experiment: Antiviral activity against RSV infected in human HEp-2 cells assessed as decrease in virus induced IFN-beta gene expression measured after 48 hrs by RT-PCR analysis; type: functional, organism-based
[25] = Selectivity index, ratio of CC50 for human HEp-2 cells to EC50 for Respiratory syncytial virus A2 infected in human HEp-2 cells; type: toxicity, cell-based; settings: read-out: Selectivity Index
[26] = system: Respiratory syncytial virus; experiment: Antiviral activity against RSV infected in BALB/c mouse assessed as downregulation of RIG-1 expression in lung tissue infected with RSV at 25 to 100 mg/kg/day measured after 2 to 4 days post infection by RT-PCR analysis; type: functional, organism-based; settings: dose 25-100 mg/kg/day, time 2-4 day
[27] = Selectivity index, ratio of CC50 for human HEp-2 cells to EC50 for Respiratory syncytial virus infected in human HEp-2 cells; type: toxicity, cell-based; settings: read-out: Selectivity Index
[28] = system: Respiratory syncytial virus; experiment: Antiviral activity against RSV infected in BALB/c mouse assessed as downregulation of TNF-alpha expression in lung tissue infected with RSV at 25 to 100 mg/kg/day measured after 2 to 6 days post infection by RT-PCR analysis; type: functional, organism-based; settings: dose 25-100 mg/kg/day, time 2-6 day
[29] = system: Respiratory syncytial virus; experiment: Antiviral activity against RSV Long infected in BALB/c mouse assessed as inhibition of alveolar infiltrates accumulation at 25 to 100 mg/kg/day observed on day 6 after infection by H and E staining based microscopic analysis; type: functional, organism-based; settings: dose 25-100 mg/kg/day, time 6.0 day
[30] = system: Human orthopneumovirus; experiment: Antiviral activity against Respiratory syncytial virus A2 infected in human HEp-2 cells assessed as reduction in viral infection up to 50 uM treated 2 hpi measured after 60 hrs by MTT assay; type: functional, organism-based; settings: dose microM <=50, time 60.0 hrs
[31] = system: Respiratory syncytial virus; experiment: Antiviral activity against Respiratory syncytial virus infected in human HEp-2 cells incubated for 60 hrs by MTT assay; type: functional, organism-based; settings: HEp-2, 60 h
[32] = system: Respiratory syncytial virus; experiment: Inhibition of RSV induced apoptosis in human HEp-2 cells assessed as reversal of virus induced increase in Bax/Bcl-2 ratio at 25 to 50 uM measured after 36 hrs by Western blot analysis; type: functional, organism-based; settings: dose 25-50 µM

In the case of Cc1c(Br)cc2nc3n(c2c1Br)[C@H]1OC[C@@H](O)[C@H]1OC3, the Activity [1] was 1.8%, the Activity [2] was “Active” and the Activity [3] was “Active”. The Activity [4] was 3.9%, the Activity [5] was “Active” and the Activity [6] was “Dose-Dependent Effect”. The pEC50 [7] was 4.88, the Activity [8] was “Active” and the Activity [9] was 2.2%. The Activity [10] was “Dose-Dependent Effect”, the Activity [11] was “Dose-Dependent Effect” and the Activity [12] was “Active”. For the same compound, the Activity [13] was 12%, the pEC50 [14] was 4.72 and the Activity [15] was “Active”. For the same compound, the Activity [16] was “Active”, the Activity [17] was “Active” and the Activity [18] was 56.3%. The Activity [19] was “Active”, the Activity [20] was “Dose-Dependent Effect” and the Activity [21] was “Dose-Dependent Effect”. For the same compound, the Activity [22] was “Active”, the CC50 at 60 h [23] was 250 µM and the Activity [24] was “Dose-Dependent Effect”. For the same compound, the selectivity ratio [25] was 19.6, the Activity [26] was “Active” and the selectivity ratio [27] was 26.4. The Activity [28] was “Active”, the Activity [29] was “Active” and the Activity [30] was “Active”. The pEC50 [31] was 5.02 and the inhibition [32] was “Active”.
